In publication PMC11367503, “Exploring galectin interactions with human milk oligosaccharides and blood group antigens identifies BGA6 as a functional galectin-4 ligand” (The Journal of Biological Chemistry, 2024):
Values joined by “and” are separate entries in the source; they are usually repeats but may differ in a detail not shown here. Equal entries are not always repeated.

Legend:
Format in all cases: binding
human Gal-1 [1] = molecular target: T1, human Gal-1 (Homo sapiens, UniProt P09382); assay: Competitive solid-phase assay (SPA), immobilized asialofetuin, Gal-1; conditions: mean ± S.D., three independent experiments
T1 construct: made in house; host or cells: Escherichia coli BL21 (DE3)
Experimental: (§1) The assay was adapted from Rapoport et al. (2010) ([88]). Briefly, 96-well plates (flat-bottom) were coated with 10 μg/ml asialofetuin (ASF, Sigma-Aldrich) in sodium carbonate buffer (pH 9.6) and incubated overnight at 4 °C. Then, wells were washed three times with 100 μl/well PBS-Tween 0.05% (w/v) and blocked with 100 μl/well PBS-bovine serum albumin (BSA) 2% (1 h, room temperature (RT)) in a humid chamber. Meanwhile, equal volumes of human recombinant Gal-1, -3, -4, -7, and -12 (20–40 μg/ml) in PBS-BSA 0.3% buffer were preincubated with the corresponding inhibitors in serial dilutions (2 h, 37 °C). After washing, galectins were detected using the corresponding antigalectin primary detection antibodies in PBS-BSA 0.3% w/v (1 h at RT). For Gal-1, wells were incubated with an in-house purified 100 ng/ml biotinylated rabbit anti–human Gal-1 polyclonal immunoglobulin G. For Gal-3, -4, and -7, a 1:500 dilution of the corresponding biotinylated anti-human galectin antibodies was used (BAF1154, BAF1227, and MAB13391, respectively, R&D Systems). For Gal-12, a rabbit anti-human Gal-12 polyclonal antibody (Santa Cruz Biotechnology, 1:700) was used. For Gal-1, -3, -4, and -7, plates were rinsed three times before adding 0.33 μg/ml horseradish peroxidase (HRP)-labeled streptavidin (Sigma-Aldrich) for 30 min. For Gal-12, an anti-rabbit secondary antibody conjugate coupled to HRP was incubated for 1 h at RT in PBS-BSA 0.3% w/v. After washing, 100 μl TMB solution (0.1 mg/ml tetramethylbenzidine and 0.06% H2O2 in citrate-phosphate buffer, pH 5.0) was added to plates. The reaction was stopped by adding a 2N H2SO4 solution. Absorbance was determined at 450 nm in a Multiskan MS microplate reader (Thermo Fisher Scientific).

human Gal-3 [2] = molecular target: T2, human Gal-3 (Homo sapiens, UniProt P17931); assay: Competitive solid-phase assay (SPA), immobilized asialofetuin, Gal-3; conditions: mean ± S.D., three independent experiments
T2 construct: made in house; host or cells: Escherichia coli BL21 (DE3)
Experimental: as §1

human Gal-4 [3] = molecular target: T3, human Gal-4 (Homo sapiens, UniProt P56470); assay: Competitive solid-phase assay (SPA), immobilized asialofetuin, Gal-4; conditions: mean ± S.D., three independent experiments
T3 construct: His6-SUMO (N, cleaved yes); made in house; host or cells: Escherichia coli BL21 (DE3)
T3 sequence (P56470 1-323): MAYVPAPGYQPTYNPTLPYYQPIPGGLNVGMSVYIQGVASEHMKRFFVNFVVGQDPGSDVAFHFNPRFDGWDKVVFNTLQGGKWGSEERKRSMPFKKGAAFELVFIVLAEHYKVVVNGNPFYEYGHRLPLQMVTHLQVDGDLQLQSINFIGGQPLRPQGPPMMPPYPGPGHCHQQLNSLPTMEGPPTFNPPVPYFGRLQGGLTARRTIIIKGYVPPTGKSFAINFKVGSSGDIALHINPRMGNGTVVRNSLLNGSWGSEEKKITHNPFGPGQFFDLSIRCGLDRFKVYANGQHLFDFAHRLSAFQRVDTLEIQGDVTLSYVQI
Experimental: as §1

human Gal-7 [4] = molecular target: T4, human Gal-7 (Homo sapiens, UniProt P47929); assay: Competitive solid-phase assay (SPA), immobilized asialofetuin, Gal-7; conditions: for affinity of Gal-7 weaker than that shown by Gal-1: SPA, Gal-7 versus Gal-1; for IC50: competitive SPA, immobilized asialofetuin, mean ± S.D., three independent experiments
T4 construct: made in house; host or cells: Escherichia coli BL21 (DE3)
Experimental: as §1

human Gal-12 = molecular target: T5, human Gal-12 (Homo sapiens, UniProt Q96DT0); assay: Competitive solid-phase assay (SPA), immobilized asialofetuin, Gal-12; conditions: mean ± S.D., three independent experiments
T5 construct: To obtain full-length human Gal-12, we adapted our previously optimized procedure for murine Gal-12; made in house; host or cells: Escherichia coli Rosetta 2 (DE3)
T5 sequence (Q96DT0 1-336): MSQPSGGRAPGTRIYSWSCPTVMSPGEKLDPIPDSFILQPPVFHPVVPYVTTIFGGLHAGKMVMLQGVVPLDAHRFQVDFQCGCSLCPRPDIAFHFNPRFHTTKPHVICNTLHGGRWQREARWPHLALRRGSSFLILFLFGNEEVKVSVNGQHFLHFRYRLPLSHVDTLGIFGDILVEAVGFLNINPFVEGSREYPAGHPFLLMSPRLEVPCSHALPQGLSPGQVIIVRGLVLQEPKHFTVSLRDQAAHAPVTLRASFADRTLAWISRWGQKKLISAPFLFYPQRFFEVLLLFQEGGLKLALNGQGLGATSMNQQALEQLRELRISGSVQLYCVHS
Experimental: as §1

human Gal-1 [5] = molecular target: T1, human Gal-1; assay: Isothermal titration calorimetry (ITC), Gal-1; conditions: Gal-1, PBS, 298 K; for Kd: n fixed to 1.00
Experimental: (§2) All ITC experiments were performed by using a NanoITC (TA Instruments) under previously optimized conditions ([89]). A typical titration involved 20 injections at 300 s intervals of 2.5 μl aliquots of a 2.5 to 10 mM ligand solution into the sample cell (volume 200 μl) containing the different galectins (30–100 μM). The solutions were prepared by dissolving the glycan ligands in degassed PBS buffer at 298 K. The titration cell was continuously stirred at 300 rev/min. The heats of dilution of the ligands in the buffer were subtracted from the titration data. […] Fitting was performed using the Nano Analyze software (TA Instruments; https://www.tainstruments.com/itcrun-dscrun-nanoanalyze-software/) to determine association constants (Ka) and the enthalpy change (ΔH). No reliable fit of the thermodynamic parameters could be obtained for binding affinities above 80 μM.

human Gal-3 [6] = molecular target: T2, human Gal-3; assay: Isothermal titration calorimetry (ITC), Gal-3; conditions: Gal-3, PBS, 298 K; for Kd: n fixed to 1.00
Experimental: as §2

human Gal-4 [7] = molecular target: T3, human Gal-4; assay: Isothermal titration calorimetry (ITC), Gal-4; conditions: Gal-4, PBS, 298 K, n fixed to 1.00
Experimental: as §2

human Gal-7 [8] = molecular target: T4, human Gal-7; assay: Isothermal titration calorimetry (ITC), Gal-7; conditions: Gal-7, PBS, 298 K, n fixed to 1.00
Experimental: as §2

T4 sequence (P47929 whole entry): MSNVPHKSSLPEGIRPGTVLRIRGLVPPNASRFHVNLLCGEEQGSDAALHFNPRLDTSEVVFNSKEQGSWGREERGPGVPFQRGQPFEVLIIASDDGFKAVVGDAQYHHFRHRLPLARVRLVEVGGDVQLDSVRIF
T2 sequence (P17931 whole entry): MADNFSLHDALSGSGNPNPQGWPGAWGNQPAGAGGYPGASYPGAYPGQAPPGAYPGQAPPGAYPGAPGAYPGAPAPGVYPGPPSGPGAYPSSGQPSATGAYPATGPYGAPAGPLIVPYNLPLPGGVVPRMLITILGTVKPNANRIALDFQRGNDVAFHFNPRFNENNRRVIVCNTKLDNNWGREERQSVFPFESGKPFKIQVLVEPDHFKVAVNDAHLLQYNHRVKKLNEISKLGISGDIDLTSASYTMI
T1 sequence (P09382 whole entry): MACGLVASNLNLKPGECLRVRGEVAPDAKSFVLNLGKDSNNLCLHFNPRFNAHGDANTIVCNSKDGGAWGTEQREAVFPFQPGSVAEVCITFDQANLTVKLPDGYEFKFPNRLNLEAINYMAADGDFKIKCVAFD

| SMILES | IC50 (human Gal-1 [1]) | IC50 (human Gal-3 [2]) | IC50 (human Gal-4 [3]) [mM] | affinity of Gal-7 weaker than that shown by Gal-1 (human Gal-7 [4]) | IC50 (human Gal-7 [4]) [mM] | IC50 (human Gal-12) [mM] | -TΔS (human Gal-1 [5]) [kcal/mol] | ΔH (human Gal-1 [5]) [kcal/mol] | Kd (human Gal-1 [5]) [mM] | Kd (human Gal-3 [6]) [mM] | Kd (human Gal-4 [7]) [mM] | Kd (human Gal-7 [8]) [mM] | -TΔS (human Gal-3 [6]) [kcal/mol] | ΔH (human Gal-3 [6]) [kcal/mol] |
| --- | --- | --- | --- | --- | --- | --- | --- | --- | --- | --- | --- | --- | --- | --- |
| CC(=O)NC1C(OC2C(O)C(CO)OC(OC3C(CO)OC(O)C(O)C3O)C2O)OC(CO)C(OC2OC(CO)C(O)C(O)C2O)C1O (stereo not shown) [LNnT, lacto-N-neotetraose] | 0.5 ± 0.1 mM | ~1.8 mM and 1.8 mM | 25.2 | ca. 5 fold | 3.3 | 29.3 ± 6 | -3.51 ± 0.19 | -2.15 ± 0.22 | 0.072 ± 0.008 | 0.095 ± 0.009 | – | – | – | – |
| CC(=O)NC1C(OC2C(O)C(CO)OC(OC3C(CO)OC(O)C(O)C3OC3OC(C)C(O)C(O)C3O)C2O)OC(CO)C(OC2OC(C)C(O)C(O)C2O)C1OC1OC(CO)C(O)C(O)C1O (stereo not shown) [LAH, Lewis A antigen hexaose] | – | 9.3 ± 0.6 mM | 30.4 ± 2 | – | 22.2 ± 0.8 | 51.1 ± 5 | – | – | – | – | – | – | – | – |
| CC(=O)NC1C(OC2C(O)C(CO)OC(OC3C(O)C(CO)OC(O)C3NC(C)=O)C2OC2OC(C)C(O)C(O)C2O)OC(CO)C(O)C1O (stereo not shown) [BGA1, blood group A antigen 1] | 6.2 mM and 6.19 mM | 1.2 ± 0.5 mM | 0.2 ± 0.1 | – | 2.5 ± 0.8 | 30.3 ± 9 | – | – | – | – | – | – | – | – |
| CC1OC(OC2C(OC3C(CO)OC(O)C(O)C3O)OC(CO)C(O)C2O)C(O)C(O)C1O (stereo not shown) [2’-FL, 2′-fucosyllactose] | 1.2 mM and 1.23 mM | 4.2 ± 0.3 mM | 1.5 ± 0.6 | – | 8.3 ± 0.5 | 63.5 ± 0.8 | – | – | – | – | 0.13 ± 0.009 | – | – | – |
| CC1OC(OC2C(OC3C(CO)OC(O)C(O)C3OC3OC(C)C(O)C(O)C3O)OC(CO)C(O)C2O)C(O)C(O)C1O (stereo not shown) [DFL, 2′,3-difucosyllactose] | 11.9 mM | 9.1 ± 0.9 mM | 14.5 ± 0.7 | – | 18.4 ± 0.3 | 4.5 ± 0.6 | – | – | – | – | – | – | – | – |
| CC(=O)NC1C(OC2C(O)C(CO)OC(OC3C(CO)OC(O)C(O)C3OC3OC(C)C(O)C(O)C3O)C2O)OC(CO)C(OC2OC(CO)C(O)C(O)C2O)C1OC1OC(C)C(O)C(O)C1O (stereo not shown) [DFH, 3,3-difucosylhexaose (Lewis X hexaose)] | 9.7 mM and 9.73 mM | 10.5 ± 0.7 mM | 13.8 ± 3 | – | 9.2 ± 0.2 | 5.6 ± 0.8 | – | – | – | – | – | – | – | – |
| CC(=O)NC1C(OC2C(O)C(CO)OC(OC3C(CO)OC(O)C(O)C3O)C2O)OC(CO)C(O)C1OC1OC(CO)C(O)C(O)C1O (stereo not shown) [LNT, lacto-N-tetraose] | 1.6 ± 0.1 mM | ~1.8 mM and 1.8 mM | 15.1 ± 0.2 | – | 2 | 30.1 ± 5 | – | – | – | – | – | 0.106 ± 0.008 | – | – |
| OC[C@H]1O[C@@H](O[C@H]2[C@H](O)[C@@H](O)C(O)O[C@@H]2CO)[C@H](O)[C@@H](O)[C@H]1O (mixture of isomers) [Lac, lactose] | – | – | 23.1 | – | 3 ± 0.6 | 82.1 ± 0.8 | – | – | – | – | – | – | – | – |
| CC(=O)NC1C(O)CC(OC2C(O)C(CO)OC(OC3C(O)C(CO)OC(OC4C(O)C(CO)OC(OC5C(CO)OC(O)C(O)C5O)C4O)C3NC(C)=O)C2O)(C(=O)O)OC1C(O)C(O)CO (stereo not shown) [LSTa, sialyl-lacto-N-tetraose a] | 1.8 ± 0.1 mM | 7.8 ± 0.8 mM | – | – | 4.3 ± 0.9 | 9.2 ± 1 | – | – | – | – | – | – | – | – |
| CC(=O)NC1C(OC2C(O)C(CO)OC(OC3C(CO)OC(O)C(O)C3OC3OC(C)C(O)C(O)C3O)C2O)OC(CO)C(O)C1OC1OC(CO)C(O)C(O)C1O (stereo not shown) [LNFP V, lacto-N-fucopentaose V] | 2.6 mM and 2.61 mM | 2.7 ± 0.5 mM | 25.1 ± 0.5 | – | 7.2 ± 0.3 | 8.9 ± 1 | – | – | – | – | – | – | – | – |
| CC(=O)NC1C(O)CC(OC2C(O)C(CO)OC(OC3C(CO)OC(O)C(O)C3O)C2O)(C(=O)O)OC1C(O)C(O)CO (stereo not shown) [3’-SL, 3′-sialyllactose] | 2.2 ± 0.03 mM | 11 ± 0.9 mM | – | – | 1.7 ± 0.2 | 11.1 ± 1 | – | – | – | – | – | 0.097 ± 0.009 | – | – |
| CC(=O)NC1C(OC2C(O)C(CO)OC(OC3C(CO)OC(OC4C(O)C(CO)OC(OC5C(CO)OC(OC6C(O)C(CO)OC(OC7C(CO)OC(O)C(O)C7O)C6O)C(NC(C)=O)C5O)C4O)C(NC(C)=O)C3O)C2O)OC(CO)C(OC2OC(CO)C(O)C(O)C2O)C1O (stereo not shown) [LNnO, lacto-N-neooctaose] | 0.6 ± 0.1 mM | 0.5 ± 0.9 mM | 21.5 | ca. 5 fold | 2.1 ± 0.8 | 28.1 ± 5 | -2.61 ± 0 | -3.04 ± 0.48 | 0.073 ± 0.007 | 0.04 ± 0.003 | – | – | -5.02 ± 0.48 | -1.1 ± 0.096 |
| CC(=O)NC1C(O)CC(OCC2OC(OC3C(CO)OC(O)C(O)C3O)C(O)C(O)C2O)(C(=O)O)OC1C(O)C(O)CO (stereo not shown) [6’-SL, 6′-sialyllactose] | – | – | – | – | 9.5 ± 0.3 | 53.3 ± 2 | – | – | – | – | – | – | – | – |
| CC(=O)NC1C(O)OC(CO)C(OC2OC(CO)C(O)C(OC3(C(=O)O)CC(O)C(NC(C)=O)C(C(O)C(O)CO)O3)C2O)C1O (stereo not shown) [3’-SLacNAc, 3’-sialyl-N-acetyllactosamine] | 2.2 ± 0.04 mM | 4.8 ± 0.3 mM | – | – | 2.2 | 9.8 ± 1 | – | – | – | – | – | – | – | – |
